This note sets out measurements from patent publication US12714747B2, “Cytotoxic lipid particles targeted to tumor-associated myeloid cells (TAMCS) and synergized with radiation therapy for treating glioblastoma” (priority 2019, dated 2026).

Series [1] concerns glioma-associated immune cells (TAMC, microglia, TIL). Put plainly: Ex vivo TAMC elimination assay. It is filed as cell-based, mice. As to conditions: 0, 25, 50 nM Dina, 72 h.
Protocol: TAMC targeting and elimination in ex vivo mice and human glioma models. Cell suspension collected from mouse or human samples was plated into 96 well U bottom plate. Cells were pre-blocked with Ultra-LEAF purified anti-mouse CD16/32 antibody or Human TruStain FcX (BioLegend) for 10 min at 4° C., followed by incubation with fluorescence labeled LNPs (0.15 mg lipids/ml) for 1 h at 37° C. in 5% CO2 humidified atmosphere. After gently washed with ice-cold PBS thrice, the cells were collected for staining with viability dye and antibodies. The cellular uptake was analyzed by flow cytometry. The ex vivo TAMC elimination assay was performed using cell suspension collected from mouse glioma samples. Cells were plated into 96 well U bottom plate in 50% complete RPMI and 50% conditioned media collected from GL261 glioma cell culture as aforementioned. Cells were subject to the treatment of αPD-L1/LNP/Dina or free Dina at a Dina concentration of 0, 25, and 50 nM for 72 h, and analyzed by flow cytometry.
The test system of a further series is PD-L1. Nature of the series: PD-L1 expression on TAMCs after IFNγ stimulation (RT-qPCR, flow cytometry). In kind it is cell-based, C57BL/6 mice. As to conditions: as low as. On the procedure:
To detect the PD-L1 expression on TAMCs post treatments, in vitro generated TAMCs (8×10^5 cells/well) were seeded in 24-well plate. After 24 h of culture, cells were subject to different treatments (Dina, αPD-L1/LNP, or αPD-L1-LNP/Dina) at a Dina concentration of 25 nM. Selected groups of cells were exposed to IFNγ (PeproTech) stimulation at 10 ng/ml for 24 h. Cells were collected and washed, followed by qPCR analysis or antibody staining for flow cytometry. The effect of irradiation on PD-L1 expression on TAMCs was similarly assessed 72 h post irradiation.

In the next series the test system is TAMCs. Nature of the series: Annexin V viability assay of TAMCs. In kind it is cell-based, C57BL/6 mice. As to conditions: 24 h. As for the experimental part: In vitro viability, gene expression, and PD-L1 expression of TAMCs post treatments. In vitro generated TAMCs (8×10^5 cells/well) were seeded in 24-well plate. After 24 h of culture, cells were incubated with αPD-L1-LNP/Dina, αPD-L1-LNP, or free Dina. At predetermined time intervals, the cells were collected and washed, followed by the annexin V assay (BioLegend). RNA isolation was processed using the RNEasy Plus Mini Kit (Qiagen), and total RNA was quantified by Nanodrop (Thermo Scientific). cDNA was synthesized using the iScript cDNA synthesis kit (Bio-Rad), and analyzed by qPCR analysis (Bio-Rad). Selected groups of cells were exposed to irradiation and collected 72 h post treatments for cell circle analysis using BrdU Flow Kit (Fisher) following the manufacturer's protocol.

For the molecule `CCc1cnn2c(NCc3ccc[n+]([O-])c3)cc(N3CCCC[C@H]3CCO)nc12` [Dina, Dinaciclib], the “off-target toxicity to tumor-infiltrating lymphocytes / immune cell populations” value in series [1] is on record as “severe off-target cytotoxicity”. Moreover, the “dose attenuating PD-L1 expression on TAMCs” value with PD-L1 was determined as 25 nM. The “cytotoxicity / viability of TAMCs” value with TAMCs was “comparable cytotoxicity”.
